{"source": "patent US11590156B2", "about": "“RNAi agents for hepatitis B virus infection” (Arrowhead Pharmaceuticals, Inc., priority 2016, dated 2023)", "key": {"[1]": {"system": "HBV genotype C; serum HBsAg", "assay": "Serum HBsAg levels in HBV-infected humanized FRG model mice", "type": "in vivo, FRG mice transplanted with human hepatocytes", "conditions": "mouse A-1; PBS (no RNAi agent); oral daily gavage 0.01 mg/kg Entecavir from day 1; Day 8", "protocol": "ii) Serum Hepatitis B surface antigen (HBsAg) levels: Serum was collected and diluted 10 to 8000-fold in PBS containing 5% nonfat dry milk. Secondary HBsAg standards diluted in the nonfat milk solution were prepared from serum of ICR mice (Harlan Sprague Dawley) that had been transfected with 10 μg HBsAg-expressing plasmid pRc/CMV-HBs (Aldevron, Fargo, N. Dak.). HBsAg levels were determined with a GS HBsAg EIA 3.0 kit (Bio-Rad Laboratories, Inc., Redmond, Wash.) as described by the manufacturer. Recombinant HBsAg protein, ayw subtype, also diluted in nonfat milk in PBS, was used as a primary standard (Aldevron). […]\nSerum was collected on day 8, day 15, day 22, day 29, day 36, and day 40 and serum Hepatitis B surface antigen (HBsAg) levels were determined pursuant to the procedure set forth in Example 2, above."}, "[2]": {"system": "HBV genotype C; serum HBV DNA", "assay": "Serum HBV DNA levels in HBV-infected humanized FRG model mice", "type": "in vivo, FRG mice transplanted with human hepatocytes", "conditions": "for Serum HBV DNA levels normalized to the average of pre-treatment day −10 and day −3: PBS (no RNAi agent), oral daily gavage 0.01 mg/kg Entecavir from day 1", "protocol": "iv) Serum HBV DNA levels: Equal volumes of serum from mice in a group or subgroup were pooled to a final volume of 100 μL. DNA was isolated from serum samples using the QIAamp MinElute Virus Spin Kit (Qiagen, Valencia, Calif.) following the manufacturer's instructions. Sterile 0.9% saline was added to each sample to a final volume of 200 μL. Serum samples were added to tubes containing buffer and protease. Carrier RNA was added to aid in the isolation of small amounts of DNA. […] After incubating 15 min at 56° C., nucleic acids were precipitated from the lysates with ethanol and the entire solution applied to a column. After washing, the samples were eluted into a volume of 50 μL Buffer AVE.\nThe number of copies of HBV genomes in DNA isolated from the pHBV mouse model serum was determined by qPCR. Plasmid pSEAP-HBV353-777, encoding a short segment of the HBV genome within the S gene (bases 353-777 of GenBank accession #V01460), was used to create a six log standard curve. Samples with recovery of DNA below 2 standard deviations from the average, based on detection of pHCR/UbC-SEAP were omitted. TaqMan chemistry-based primers and probes with fluor/ZEN/IBFQ are utilized.\nqPCR assays were performed on a 7500 Fast or StepOne Plus Real-Time PCR system (Life Technologies). For evaluation of HBV DNA in serum, DNA was isolated from singlet or duplicate purification steps from pooled group serum samples. Quantitations of HBV DNA and recovery control plasmid were determined by qPCR reactions performed in triplicate. The probes to quantitate HBV and pHCR/UbC-SEAP were included in each reaction.\nFor this study, Male FRG® (genotype Fah −/−/Rag2−/−/Il2rg −/− triple knockout mice on a C57BL/6 background (Yecuris) were transplanted with human hepatocytes when they were 1-2 months old. The human hepatocytes were allowed to repopulate the liver for approximately 6 months with periodic NTBC treatment to discourage growth of mouse hepatocytes. At 9 months of age the mice were given an intravenous inoculation of 4×10^8 genomes/kg HBV genotype C, which infected the human hepatocytes. After 2-3 months, serum HBV DNA levels reached a plateau indicating the human hepatocytes were maximally infected (mouse hepatocytes cannot be infected by HBV). Mice were one year old at the start of treatment with HBV RNAi agents, thus nearing the end of their life span.\nPre-treatment serum samples were taken on day −10 and day −3. Beginning on day 1, each mouse was administered an oral daily gavage with 0.01 mg/kg Entecavir dissolved in water to inhibit HBV replication. Daily dosing of Entecavir continued until the day mice were euthanized. Entecavir administration was expected to reduce serum HBV DNA in chronically infected human patients, but not reduce HBsAg.\nEach mouse was also given a subcutaneous administration of 100 μl per 20 grams body weight containing the amount of HBV RNAi agent(s) formulated in phosphate buffered saline, or an equal volume of phosphate buffered saline without an HBV RNAi agent, on day 1 and on day 29 (if still alive on day 29), pursuant to the schedule as set forth in Table 47, directly above. […] The injections were performed between the skin and muscle (i.e. subcutaneous injections) into the loose skin over the neck and shoulder area.\nAdditionally, serum HBV DNA levels were determined from serum samples collected on days −10, −3, 8, 15, 22, 29, 36, and 40, pursuant to the procedure set forth in Example 2, above."}}, "data": [{"compound": "C=C1[C@H](CO)[C@@H](O)C[C@@H]1n1cnc2c(=O)[nH]c(N)nc21", "note": "[Entecavir]", "values": [{"measurement": "Average HBsAg levels normalized to pre-treatment (day −3)", "setting": "[1]", "result": 0.830}, {"measurement": "viral replication (serum HBV DNA)", "setting": "[2]; Example 18, 0.01 mg/kg Entecavir oral daily gavage", "result": "reduced viral replication in both the absence and presence of HBV RNAi agents"}, {"measurement": "Serum HBV DNA levels normalized to the average of pre-treatment day −10 and day −3", "setting": "[2]; mouse A-1, Day 8", "result": 0.072}, {"measurement": "Serum HBV DNA levels normalized to the average of pre-treatment day −10 and day −3", "setting": "[2]; mouse A-1, Day 15", "result": 0.038}, {"measurement": "Serum HBV DNA levels normalized to the average of pre-treatment day −10 and day −3", "setting": "[2]; mouse A-1, Day 22", "result": 0.015}, {"measurement": "Serum HBV DNA levels normalized to the average of pre-treatment day −10 and day −3", "setting": "[2]; mouse A-1, Day 29", "result": 0.027}, {"measurement": "Serum HBV DNA levels normalized to the average of pre-treatment day −10 and day −3", "setting": "[2]; mouse A-1, Day 36", "result": 0.060}, {"measurement": "Serum HBV DNA levels normalized to the average of pre-treatment day −10 and day −3", "setting": "[2]; mouse A-2, Day 8", "result": 0.130}, {"measurement": "Serum HBV DNA levels normalized to the average of pre-treatment day −10 and day −3", "setting": "[2]; mouse A-2, Day 15", "result": 0.075}]}]}
